In series [1] the target is T1, Integrin alpha-V/beta-3 (Homo sapiens, UniProt P05106+P06756). The series is described as follows: Inhibition of vitronectin binding to human integrin alphaVbeta3 measured after 4 hrs by ELISA. Format: protein-complex assay.
Series [2] can be described thus: Stability in human serum at 1 mM incubated for 15 mins measured up to 180 mins by RP-HPLC method. The following applies: 0.25 h, 1000 µM. The class given is ADME, cell-free.
Series [3] addresses T1, Integrin alpha-V/beta-3. The series is described as follows: Inhibition of vitronectin binding to integrin alphaVbeta3 in HDF pretreated for 20 mins followed by vitronectin addition measured after 40 mins by crystal violet staining based assay. The class given is protein-complex assay.

T1 sequence (P05106 27-788 limits assumed): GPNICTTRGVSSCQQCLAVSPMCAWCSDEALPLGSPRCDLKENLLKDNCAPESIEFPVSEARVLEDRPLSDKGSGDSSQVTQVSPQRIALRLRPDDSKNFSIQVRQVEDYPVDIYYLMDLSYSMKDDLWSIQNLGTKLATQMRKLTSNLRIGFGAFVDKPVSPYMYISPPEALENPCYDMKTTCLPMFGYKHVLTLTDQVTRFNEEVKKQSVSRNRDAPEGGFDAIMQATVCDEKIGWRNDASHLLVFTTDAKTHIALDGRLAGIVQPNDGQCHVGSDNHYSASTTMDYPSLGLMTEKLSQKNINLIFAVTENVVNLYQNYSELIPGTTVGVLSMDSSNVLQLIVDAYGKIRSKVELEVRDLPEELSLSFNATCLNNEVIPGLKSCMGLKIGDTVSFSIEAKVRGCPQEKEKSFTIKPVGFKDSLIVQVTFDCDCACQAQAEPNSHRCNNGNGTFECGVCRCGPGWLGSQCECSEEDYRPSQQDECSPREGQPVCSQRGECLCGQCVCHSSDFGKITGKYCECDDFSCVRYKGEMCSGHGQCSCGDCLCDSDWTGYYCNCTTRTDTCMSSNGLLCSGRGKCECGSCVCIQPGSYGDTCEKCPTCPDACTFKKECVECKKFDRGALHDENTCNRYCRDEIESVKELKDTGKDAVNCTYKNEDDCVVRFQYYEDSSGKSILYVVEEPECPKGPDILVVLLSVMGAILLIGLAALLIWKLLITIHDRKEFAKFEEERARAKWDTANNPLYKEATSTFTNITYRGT
T1 sequence (P06756 31-889 limits assumed): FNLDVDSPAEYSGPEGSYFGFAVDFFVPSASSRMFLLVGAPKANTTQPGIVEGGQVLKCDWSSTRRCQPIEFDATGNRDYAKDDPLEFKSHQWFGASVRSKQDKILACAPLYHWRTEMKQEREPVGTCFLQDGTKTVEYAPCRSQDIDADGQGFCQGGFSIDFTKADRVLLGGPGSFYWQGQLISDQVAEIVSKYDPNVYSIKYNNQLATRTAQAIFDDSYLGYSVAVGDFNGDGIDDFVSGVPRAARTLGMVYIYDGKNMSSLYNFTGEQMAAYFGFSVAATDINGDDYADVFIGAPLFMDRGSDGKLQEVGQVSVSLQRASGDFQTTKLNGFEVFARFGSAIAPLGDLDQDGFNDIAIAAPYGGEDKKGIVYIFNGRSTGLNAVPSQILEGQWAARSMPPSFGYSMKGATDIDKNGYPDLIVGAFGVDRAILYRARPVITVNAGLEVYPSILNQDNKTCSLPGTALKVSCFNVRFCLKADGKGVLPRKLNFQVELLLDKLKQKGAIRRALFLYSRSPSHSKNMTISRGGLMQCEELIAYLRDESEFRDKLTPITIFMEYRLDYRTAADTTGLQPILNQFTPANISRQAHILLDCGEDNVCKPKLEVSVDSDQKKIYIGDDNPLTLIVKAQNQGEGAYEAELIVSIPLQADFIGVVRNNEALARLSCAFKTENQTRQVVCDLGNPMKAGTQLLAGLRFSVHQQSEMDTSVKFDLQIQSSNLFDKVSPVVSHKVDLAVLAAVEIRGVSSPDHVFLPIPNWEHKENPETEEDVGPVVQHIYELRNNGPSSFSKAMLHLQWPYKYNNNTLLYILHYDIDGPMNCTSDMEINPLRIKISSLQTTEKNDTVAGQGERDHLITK
T1 sequence (P06756 891-1048 limits assumed): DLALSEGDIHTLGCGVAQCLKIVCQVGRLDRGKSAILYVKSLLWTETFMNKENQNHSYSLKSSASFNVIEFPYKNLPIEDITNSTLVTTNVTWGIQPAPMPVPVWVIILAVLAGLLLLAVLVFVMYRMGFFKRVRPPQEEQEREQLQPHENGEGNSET

In turn, `CC(C)[C@@H]1/C=C/[C@@H](Cc2ccccc2)NC(=O)[C@H](CC(=O)O)NC(=O)CNC(=O)[C@H](CCCNC(=N)N)NC1=O` registered an IC50 at Integrin alpha-V/beta-3 [1] of 3.6 nM.
On to `CC(C)[C@@H]1/C=C(\Cl)[C@@H](Cc2ccccc2)NC(=O)[C@H](CC(=O)O)NC(=O)CNC(=O)[C@H](CCCNC(=N)N)NC1=O`, for which the Stability result in series [2] is recorded as “Stable”. Moreover, the IC50 on Integrin alpha-V/beta-3 [3] was found to be 0.497 nM.
Turning to `C/C1=C\[C@@H](Cc2ccccc2)NC(=O)[C@H](CC(=O)O)NC(=O)CNC(=O)[C@H](CCCNC(=N)N)NC(=O)[C@@H]1C(C)C`, the concentration for half-maximal inhibition (IC50) at Integrin alpha-V/beta-3 [1] is 2.4 nM.

The values above are taken from ChEMBL document CHEMBL4138265, “Synthesis of a Chloroalkene Dipeptide Isostere-Containing Peptidomimetic and Its Biological Application” (ACS Med Chem Lett, 2018).
